Values joined by “and” are separate entries in the source; they are usually repeats but may differ in a detail not shown here. Identical values can stand only once.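 48-hour exposure; five concentrations; linearly interpolated endpoints. The concentration for 50% growth inhibition is given as GI50. TGI: concentration producing complete growth inhibition.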 A value given as a limit tells only on which side of the number the result lay.

Holding throughout (assay): NCI anticancer screen, dose series, 48 h
The subject of assay [1] is MALME-3M melanoma.
Assay [2] has as its system HL-60(TB) leukemia.
Assay [3] deals with IGROV1 ovarian.
The test system of assay [4] is HT29 colon.
The test system of assay [5] is SN12C renal.
For assay [6], the system named is LOX IMVI melanoma.
The test system of assay [7] is SF-539 CNS.
In assay [8] the test system is U251 CNS.
The subject of assay [9] is NCI-H226 lung.
The test system of assay [10] is SF-268 CNS.
The test system of assay [11] is UACC-257 melanoma.

On to `Cn1cccc1-c1ccc(-c2ccc(CO)[se]2)[se]1`, for which the TGI is more than 100 µM in [1]; 18.9 µM in [2]; more than 100 µM in assay [3]; more than 100 µM in assay [4]; more than 100 µM in [5]; more than 70.6 µM in [6]. For the same compound, the TGI in assay [7] is more than 82.9 µM; in assay [8], more than 100 µM; in assay [9], 5.89 µM; in assay [10] it was more than 100 µM.
For the compound `COc1ccccc1OCC(COC(=O)Nc1ccccc1)OC(=O)Nc1ccccc1` (stereo not given), the TGI in [11], in assay [1], in assay [2], in assay [3], in assay [4] and in assay [5] was more than 100 µM each time. Besides, the TGI was more than 100 µM in assay [6]; 33.4 µM in assay [7]; more than 100 µM in assay [8]; more than 100 µM in [9]; more than 100 µM in assay [10].
As to `CCC1(O)CC(OC2CC(N(C)C)C(OC3CC(O)C(OC4OC(C)C(=O)C=C4N)C(C)O3)C(C)O2)c2c(cc3c(c2O)C(=O)c2c(O)cccc2C3=O)C1C(=O)OC` (stereo not given), the TGI in assay [11] was 0.553 µM and 0.356 µM; in [1], 0.233 µM and 0.137 µM; in [2] it was 0.5 µM and 0.079 µM; in assay [4], 0.431 µM and 1.24 µM; in [5] it was 1.51 µM and 2.29 µM; in [6] it was 1.48 µM and 1.56 µM. Moreover, the TGI in assay [7] is 0.502 µM and 1.4 µM; in assay [8], 1.5 µM and 1.55 µM; in [9], 0.347 µM and 0.0894 µM; in assay [10], 2.89 µM and 1.38 µM. Besides, the GI50 in assay [1] was 0.0208 µM; in assay [5] it was 0.0924 µM; in [9], 0.0161 µM; in [10], 0.0127 µM.
As for `ClC(Cl)(Cl)C1CCOC1n1nnc2ccccc21` (stereo not given), the TGI in assay [11] is more than 100 µM; in [1] it was more than 100 µM; in assay [2], 58.2 µM; in [3], more than 100 µM; in assay [4], more than 100 µM; in [5], more than 100 µM. Besides, the TGI in [7], in assay [8], in [9] and in [10] was more than 100 µM in each case.
On to `COC(=O)[C@H](Cc1c[nH]c2ccccc12)NP(=O)(OCCC#N)OCC1OC(n2cc(C)c(=O)[nH]c2=O)CC1N=[N+]=[N-]` (stereo not given in full), for which the TGI in assay [11], in assay [1], in [2], in [3], in assay [4] and in assay [5] was more than 100 µM in each case. Besides, the TGI in assay [6], in [8], in assay [9] and in assay [10] was more than 100 µM in each case.
As for `CC(=O)O[C@H]1CC[C@@]2(C)C(=CC[C@@H]3[C@@H]2CC[C@]2(C)C(=N/O)/C(=C\c4ccccc4)C[C@@H]32)C1`, the TGI is 37.3 µM in [11]; 24.7 µM in assay [1]; 49.3 µM in assay [2]; more than 100 µM in assay [3]; more than 100 µM in assay [4]; 38.1 µM in [5]. The TGI is 26 µM in [6]; 83.3 µM in [7]; more than 81.5 µM in [8]; 44.9 µM in [9]; more than 80.8 µM in assay [10].
In the case of `C#C[C@]1(O)CC[C@H]2[C@@H]3CCC4=C/C(=N/NC(=O)c5cccc6c(=O)c7ccccc7[nH]c56)CCC4[C@H]3CC[C@@]21C` (stereo not given in full), the TGI was more than 100 µM in assay [11]; 68.1 µM in assay [1]; more than 100 µM in [2]; more than 100 µM in [3]; more than 100 µM in [4]; more than 100 µM in assay [5]. For the same compound, the TGI in [6], in assay [7], in [8], in assay [9] and in [10] was more than 100 µM each time.
On to `N#CC(CCN1CCC(Nc2ccccc2)(c2nnnn2C2CCCCC2)CC1)(c1ccccc1)c1ccccc1`, for which the TGI in [11], in assay [1], in [2], in assay [3], in assay [4] and in assay [5] was more than 100 µM throughout. For the same compound, the TGI in assay [6], in [7], in assay [8], in assay [9] and in assay [10] was more than 100 µM each time.
Consider `Cc1cc(S(=O)(=O)Nc2nc3ncccc3[nH]2)c(S)cc1Cl`, for which the TGI in assay [11], in assay [1], in assay [2], in assay [3], in [4] and in [5] was more than 100 µM throughout. For the same compound, the TGI in [6], in assay [7], in assay [8], in assay [9] and in [10] was more than 100 µM in each case.
Turning to `CSC(SC)=C(C#N)C(=O)Nc1cccc(Cl)c1`, the TGI is more than 100 µM in assay [11]; more than 100 µM in assay [1]; 35.2 µM in assay [2]; more than 100 µM in [3]; more than 100 µM in assay [4]; more than 100 µM in assay [5]. The TGI in [6], in [7], in assay [8], in assay [9] and in assay [10] was more than 100 µM throughout.
`O=c1[nH]c(=O)n(C2CC(O)C(CO)O2)cc1Oc1ccccc1` (stereo not given): the TGI in assay [11], in assay [1], in assay [2], in assay [3], in assay [4] and in [5] was more than 100 µM throughout. Besides, the TGI in assay [6], in assay [8], in assay [9] and in assay [10] was more than 100 µM each time.
